Test [1] has as its target T1, human KDR (VEGF-receptor-2) (Homo sapiens, UniProt P35968).
T1 construct: beginning at Met-806; (5′-ATG GAT CCA GAT GM CTC CCA TTG) and ending at Val-1356; made in house
Put plainly: KDR kinase enzyme assay (DELFIA, KDR-IC-Flag, poly(Glu4-Tyr) peptide). Type of test: biochemical. The conditions noted are these: for inhibition at 0.1 µM: Concentration 100 nM; for inhibition at 1 µM: Concentration 1000 nM.

In the next test the target is KDR (Homo sapiens, UniProt P35968). The experiment in a line: cell-based. The conditions noted are these: read-out: % Inhibition of KDR kinase autophosphorylation in KDR15 cells, compound conc. 1000 nM.
The subject of test [2] is Human umbilical vein endothelial cells (HUVEC). The experiment in a line: HUVEC proliferation assay, VEGF-dependent growth ([3H]-thymidine incorporation). It counts as cell-based. Particulars: for inhibition at 0.1 µM / inhibition at 10 µM / inhibition at 1 µM: Homo sapiens, HUVEC. How it is done: Cells were plated into 96-well dishes (4000 cells per well) and allowed to attach overnight. HUVEC were rinsed one time with 100 μl of EBMc-V (EBM supplemented with all above components except serum or VEGF), then 50 ul of EBMc-V was added to cells. Compounds were prepared at 200× stocks in DMSO, diluted into EBMc-V media as 4× stocks, then 50 ul added to appropriate wells. Finally, 100 μl of 2×VEGF (100 ng/ml prepared in EBMc-V; final 50 ng/ml VEGF) was added to all VEGF-treated wells. EBMc-V (no VEGF) was added to negative control wells. Parallel compound-treated plates were prepared except that 100 μl of EGM2 media containing 2% serum but lacking VEGF (EGMc-V) was added. Cells were incubated for 4-5 days at 37° C.
DNA synthesis was assessed by thymidine incorporation. Cells were incubated for 5 hours in 1 μCi of [^3H]-thymidine (PerkinElmer) by addition of 10 ul of 0.1 μCi/ul thymidine prepared in PBS to each well. After incubation, media was aspirated and the cells trypsinized and collected onto a mat using a vacuum-based Micro Cell Harvester (Skatron). [^3H]-thymidine was counted in a liquid scintillation counter. Compounds evaluated for ability to inhibit VEGF-dependent growth of human umbilical vein endothelial cells (HUVEC).

The mark [3] stands for this setting: ATP conc. 10 μM, read-out: % Inhibition.
The mark [4] stands for this setting: ATP conc. 1000 μM, read-out: % Inhibition.

“And” between values parts separate entries of the source, which are not always exact repeats. Identical values can stand only once. Like-named read-outs stand apart in the source and are kept apart here.

Sequence of KDR (P35968 20-1356): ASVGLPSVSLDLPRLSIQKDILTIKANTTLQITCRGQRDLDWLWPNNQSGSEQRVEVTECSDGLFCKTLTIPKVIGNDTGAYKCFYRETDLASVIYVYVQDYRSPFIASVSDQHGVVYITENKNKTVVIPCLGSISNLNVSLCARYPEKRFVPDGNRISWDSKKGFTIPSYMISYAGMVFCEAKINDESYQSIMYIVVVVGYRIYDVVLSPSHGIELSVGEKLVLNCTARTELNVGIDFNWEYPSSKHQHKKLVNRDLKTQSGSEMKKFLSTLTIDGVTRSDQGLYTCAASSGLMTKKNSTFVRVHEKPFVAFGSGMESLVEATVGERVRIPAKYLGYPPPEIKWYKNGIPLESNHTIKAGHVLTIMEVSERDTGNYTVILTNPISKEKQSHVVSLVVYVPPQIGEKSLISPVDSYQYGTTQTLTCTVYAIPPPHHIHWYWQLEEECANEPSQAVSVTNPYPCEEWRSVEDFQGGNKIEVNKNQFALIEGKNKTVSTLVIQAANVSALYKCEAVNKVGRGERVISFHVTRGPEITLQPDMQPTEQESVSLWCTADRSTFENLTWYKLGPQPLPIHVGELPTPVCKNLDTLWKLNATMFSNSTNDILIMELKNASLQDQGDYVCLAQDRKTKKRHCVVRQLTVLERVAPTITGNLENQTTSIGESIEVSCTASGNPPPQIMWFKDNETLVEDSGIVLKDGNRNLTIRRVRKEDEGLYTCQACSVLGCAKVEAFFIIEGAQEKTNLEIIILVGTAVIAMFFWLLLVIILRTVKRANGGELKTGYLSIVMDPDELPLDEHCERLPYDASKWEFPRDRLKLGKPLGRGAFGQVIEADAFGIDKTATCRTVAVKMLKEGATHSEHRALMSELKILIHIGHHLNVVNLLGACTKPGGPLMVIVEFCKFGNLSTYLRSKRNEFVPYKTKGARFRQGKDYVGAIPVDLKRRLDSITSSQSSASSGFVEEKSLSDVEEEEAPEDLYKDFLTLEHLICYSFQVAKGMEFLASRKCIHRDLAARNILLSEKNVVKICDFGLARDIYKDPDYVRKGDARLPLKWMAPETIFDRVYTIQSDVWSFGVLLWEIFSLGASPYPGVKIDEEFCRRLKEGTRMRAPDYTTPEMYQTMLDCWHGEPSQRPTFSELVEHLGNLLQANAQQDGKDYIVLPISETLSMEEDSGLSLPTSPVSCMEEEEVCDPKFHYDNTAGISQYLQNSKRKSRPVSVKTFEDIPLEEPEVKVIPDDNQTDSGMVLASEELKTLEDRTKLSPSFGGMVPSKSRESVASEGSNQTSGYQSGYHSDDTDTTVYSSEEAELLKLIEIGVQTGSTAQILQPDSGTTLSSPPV
T1 sequence (P35968 806-1356): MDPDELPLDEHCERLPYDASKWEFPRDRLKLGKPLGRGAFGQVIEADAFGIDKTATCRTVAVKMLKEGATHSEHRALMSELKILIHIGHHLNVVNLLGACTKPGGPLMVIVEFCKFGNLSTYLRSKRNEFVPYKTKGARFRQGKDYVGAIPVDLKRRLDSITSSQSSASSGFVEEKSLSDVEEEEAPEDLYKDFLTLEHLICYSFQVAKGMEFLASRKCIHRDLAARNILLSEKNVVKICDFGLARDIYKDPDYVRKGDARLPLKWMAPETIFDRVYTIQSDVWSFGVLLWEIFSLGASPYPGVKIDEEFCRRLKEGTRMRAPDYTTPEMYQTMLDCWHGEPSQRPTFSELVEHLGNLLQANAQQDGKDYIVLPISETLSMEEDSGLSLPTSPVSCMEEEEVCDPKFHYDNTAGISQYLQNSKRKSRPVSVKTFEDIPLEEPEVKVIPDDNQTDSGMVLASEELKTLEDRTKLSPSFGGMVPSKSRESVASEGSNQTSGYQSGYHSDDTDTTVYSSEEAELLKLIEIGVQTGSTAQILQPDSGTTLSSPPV

Take `COc1cc2ncnc(NC3=CC(=O)C4(C)OC4C3=O)c2cc1OC` (stereo not shown) [Example 5, 4-[(6,7-dimethoxy-4-quinazolinyl)amino]-1-methyl-7-oxabicyclo[4.1.0]hept-3-ene-2,5-dione]: the inhibition at 0.1 µM in test [1] (setting [3]) stood at 18%. Moreover, the inhibition at 1 µM in test [1] (setting [3]) is 49%; in test [1] (setting [4]), 60%; on KDR, 56%.
Turning to `COCCOc1cc2ncnc(NC3=CC(=O)C(C)=CC3=O)c2cc1OC` [Example 15, 2-{[6-methoxy-7-(2-methoxyethoxy)-4-quinazolinyl]amino}-5-methylbenzo-1,4-quinone], in test [2] (conc. 100 nM), the inhibition at 0.1 µM came to 24%; the “% Inhibition of VEGF-dependent growth of HUVEC” value (from here on “% Inhibition”) is 40% and 42%. Besides, in test [2] (conc. 10000 nM), the inhibition at 10 µM came out at 96%; the “% Inhibition” value was 98% and 97%. The “% Inhibition” value in test [2] (conc. 1000 nM) is 86% and 95% and 67%.
`COCCOc1cc2ncnc(NC3=C(Sc4ccccc4)C(=O)C=C(OC)C3=O)c2cc1OC` [Example 18, 5-methoxy-3-{[6-methoxy-7-(2-methoxyethoxy)quinazolin-4-yl]amino}-2-(phenylthio)benzo-1,4-quinone]: the inhibition at 0.1 µM in test [1] (setting [3]) turned out to be 13%. Also, the inhibition at 1 µM is 2% in test [1] (setting [3]), -30% in test [1] (setting [4]) and 27% at KDR.
As for `COCCOc1cc2ncnc(NC3=C(SCc4ccccc4)C(=O)C=C(OC)C3=O)c2cc1OC` [Example 19, 2-(benzylthio)-5-methoxy-3-{[6-methoxy-7-(2-methoxyethoxy)quinazolin-4-yl]amino}benzo-1,4-quinone], the inhibition at 0.1 µM in test [1] (setting [3]) was 41%. In addition, the values for the inhibition at 1 µM (in test [1] (setting [3]); in test [1] (setting [4]); at KDR) were 88%, 88% and -10%, respectively.
With `COCCOc1cc2ncnc(NC3=CC(=O)C(Sc4ccccc4)=CC3=O)c2cc1OC` [Example 24, 2-{[6-methoxy-7-(2-methoxyethoxy)quinazolin-4-yl]amino}-5-(phenylthio)benzo-1,4-quinone], in test [1] (setting [3]), the inhibition at 0.1 µM turned out to be 96%. Also, the inhibition at 1 µM in test [1] (setting [3]) is 92%; in test [1] (setting [4]), 96%; on KDR it was 0%.
Regarding `COCCOc1cc2ncnc(NC3=CC(=O)C(Cl)=CC3=O)c2cc1OC` [Example 25, 2-chloro-5-{[6-methoxy-7-(2-methoxyethoxy)quinazolin-4-yl]amino}benzo-1,4-quinone], the inhibition at 0.1 µM in test [2] (conc. 100 nM) turned out to be 29%. Moreover, the inhibition at 1 µM in test [2] (conc. 1000 nM) is 51%. Moreover, the inhibition at 10 µM in test [2] (conc. 10000 nM) came out at 81%.
`COCCOc1cc2ncnc(NC3=CC(=O)C(Oc4cccc(C#N)c4)=CC3=O)c2cc1OC` [Example 27, 3-[(4-{[6-methoxy-7-(2-methoxyethoxy)quinazolin-4-yl]amino}-3,6-dioxocyclohexa-1,4-dien-1-yl)oxy]benzonitrile] showed a concentration for half-maximal inhibition (IC50) in test [1] (ATP conc. 10 μM) of 34.4 nM. In test [1] (setting [3]), the inhibition at 0.1 µM was found to be 63%. The inhibition at 1 µM was 96% in test [1] (setting [3]), 98% in test [1] (setting [4]) and 25% on KDR.
As for `COCCOc1cc2ncnc(NC3=CC(=O)C(Oc4cccc(OC)c4)=CC3=O)c2cc1OC` [Example 28, 2-{[6-methoxy-7-(2-methoxyethoxy)quinazolin-4-yl]amino}-5-(3-methoxyphenoxy)benzo-1,4-quinone], in test [1] (ATP conc. 10 μM), the 50% inhibitory concentration (IC50) was determined as 12.1 nM, the inhibition at 0.1 µM stood at 83% and the inhibition at 1 µM was 96%. For the same compound, the inhibition at 1 µM in test [1] (ATP conc. 1000 μM) was found to be 98%. Besides, the inhibition at 1 µM at KDR is 35%.
Regarding `COCCOc1cc2ncnc(NC3=CC(=O)C(Oc4ccc(Oc5ccccc5)cc4)=CC3=O)c2cc1OC` [Example 29, 2-{[6-methoxy-7-(2-methoxyethoxy)quinazolin-4-yl]amino}-5-(4-phenoxyphenoxy)benzo-1,4-quinone], in test [1] (ATP conc. 10 μM), the IC50 came to 37.7 nM, the inhibition at 0.1 µM turned out to be 62% and the inhibition at 1 µM was 92%. Moreover, in test [1] (ATP conc. 1000 μM), the inhibition at 1 µM turned out to be 95%. Also, the inhibition at 1 µM at KDR is 30%.
For `COCCOc1cc2ncnc(NC3=CC(=O)C(Oc4ccc(F)cc4)=CC3=O)c2cc1OC` [Example 30, 2-(4-fluorophenoxy)-5-{[6-methoxy-7-(2-methoxyethoxy)quinazolin-4-yl]amino}benzo-1,4-quinone], the inhibition at 0.1 µM in test [1] (ATP conc. 10 μM) was 83%. In addition, the inhibition at 1 µM in test [1] (ATP conc. 10 μM) was determined as 96%; in test [1] (ATP conc. 1000 μM), 98%.
In the same order, the values of `COCCOc1cc2ncnc(NC3=CC(=O)C(Oc4ccc(C#N)cc4)=CC3=O)c2cc1OC` [Example 31, 4-[(4-{[6-methoxy-7-(2-methoxyethoxy)quinazolin-4-yl]amino}-3,6-dioxocyclohexa-1,4-dien-1-yl)oxy]benzonitrile] are 82%, 96% and 98%.
For the compound `COCCOc1cc2ncnc(NC3=CC(=O)C(Oc4ccc(OC)cc4)=CC3=O)c2cc1OC` [Example 32, 2-{[6-methoxy-7-(2-methoxyethoxy)quinazolin-4-yl]amino}-5-(4-methoxyphenoxy)benzo-1,4-quinone], inhibition in test [1] (ATP conc. 10 μM) was half-maximal at 4.8 nM (IC50). Moreover, the inhibition at 0.1 µM is 88% in test [1] (ATP conc. 10 μM) and 10% in test [2] (conc. 100 nM). In addition, the results for the inhibition at 1 µM in test [1] (ATP conc. 10 μM), in test [1] (ATP conc. 1000 μM) and in test [2] (conc. 1000 nM) were 96%, 98% and 41%, respectively. Besides, in test [2] (conc. 10000 nM), the inhibition at 10 µM is 98%.
Turning to `COCCOc1cc2ncnc(NC3=CC(=O)C(Oc4ccc(C(F)(F)F)cc4)=CC3=O)c2cc1OC` [Example 36, 2-{[6-methoxy-7-(2-methoxyethoxy)quinazolin-4-yl]amino}-5-[4-(trifluoromethyl)phenoxy]benzo-1,4-quinone], in test [1] (setting [3]), the inhibition at 0.1 µM came out at 79% and the inhibition at 1 µM was 96%. In test [1] (setting [4]), the inhibition at 1 µM came to 98%.
Take `COCCOc1cc2ncnc(NC3=CC(=O)C(Oc4cccc(C(F)(F)F)c4)=CC3=O)c2cc1OC` [Example 43, 2-{[6-methoxy-7-(2-methoxyethoxy)quinazolin-4-yl]amino}-5-[3-(trifluoromethyl)phenoxy]benzo-1,4-quinone]: in test [1] (ATP conc. 10 μM), it took 121 nM to reach half-maximal inhibition (IC50). In test [1] (setting [3]), the inhibition at 0.1 µM is 45% and the inhibition at 1 µM was 89%. The inhibition at 1 µM in test [2] (conc. 1000 nM) came to 36%. In addition, in test [2] (conc. 10000 nM), the inhibition at 10 µM stood at 88%.
Consider `COCCOc1cc2ncnc(NC3=CC(=O)C(Oc4ccc(C(=O)/C=C/c5ccccc5)cc4)=CC3=O)c2cc1OC` [Example 55, 2-{[6-methoxy-7-(2-methoxyethoxy)quinazolin-4-yl]amino}-5-{4-[(2E)-3-phenylprop-2-enoyl]phenoxy}benzo-1,4-quinone], for which the midpoint of inhibition in test [1] (ATP conc. 10 μM), the IC50, lay at 5.4 nM. Besides, the inhibition at 0.1 µM in test [1] (setting [3]) was 90%; in test [2] (conc. 100 nM), 7%. In addition, the inhibition at 1 µM stood at 93% in test [1] (setting [3]) and 61% in test [2] (conc. 1000 nM). For the same compound, the inhibition at 10 µM in test [2] (conc. 10000 nM) came to 99%.
On to `COCCOc1cc2ncnc(NC3=CC(=O)C(Oc4ccc(C(C)(C)c5ccccc5)cc4)=CC3=O)c2cc1OC` [Example 56, 2-{[6-methoxy-7-(2-methoxyethoxy)quinazolin-4-yl]amino}-5-[4-(1-methyl-1-phenylethyl)phenoxy]benzo-1,4-quinone], for which, in test [1] (ATP conc. 10 μM), the midpoint of inhibition, the IC50, lay at 62.2 nM. Moreover, in test [1] (setting [3]), the inhibition at 0.1 µM was 69% and the inhibition at 1 µM is 81%.
On to `COCCOc1cc2ncc(C#N)c(NC3=CC(=O)C(Oc4ccccc4)=CC3=O)c2cc1OC` [Example 71, 4-[(3,6-dioxo-4-phenoxycyclohexa-1,4-dien-1-yl)amino]-6-methoxy-7-(2-methoxyethoxy)quinoline-3-carbonitrile], for which the midpoint of inhibition in test [1] (ATP conc. 10 μM), the IC50, lay at 273 nM. In test [1] (setting [3]), the inhibition at 0.1 µM was determined as 41%. Also, the inhibition at 1 µM in test [1] (setting [3]) was found to be 85%; in test [1] (setting [4]) it was 58%.
`COCCOc1cc2ncnc(NC3=CC(=O)C(N(C)c4ccccc4)=CC3=O)c2cc1OC` [Example 76, 2-{[6-methoxy-7-(2-methoxyethoxy)quinazolin-4-yl]amino}-5-[methyl(phenyl)amino]benzo-1,4-quinone]: the inhibition at 0.1 µM in test [2] (conc. 100 nM) was -30%. The inhibition at 1 µM in test [2] (conc. 1000 nM) is 63%. The inhibition at 10 µM in test [2] (conc. 10000 nM) worked out at 96%.
In the same order, the values of `COCCOc1cc2ncnc(NC3=CC(=O)C(OC)=CC3=O)c2cc1OC` [Example 105, 2-(methoxy)-5-{[6-methoxy-7-(2-methoxyethoxy)quinazolin-4-yl]amino}benzo-1,4-quinone] are -1%, 36% and 88%.
